Format in all cases: binding
The target in one assay is RrgA SPEC6B (Streptococcus pneumoniae, UniProt A7KT31). Put plainly: SPR (Biacore T100). Conditions: read-out: RrgA SPEC6B; free oligosaccharide; protein immobilised on CM5 chip; glycans 160 nM to 100 µM. The source says:
SPR (Biacore T100) on RrgA SPEC6B
(In SPR one partner is held on a chip, and binding of the other changes the refractive index at the surface.)

For another assay, the target named is T1, RrgA TIGR4 (RrgA T4) (Streptococcus pneumoniae, UniProt A0A0H2UNT6).
T1 construct: gene SP_0462
T1 sequence (A0A0H2UNT6 entry or part of it): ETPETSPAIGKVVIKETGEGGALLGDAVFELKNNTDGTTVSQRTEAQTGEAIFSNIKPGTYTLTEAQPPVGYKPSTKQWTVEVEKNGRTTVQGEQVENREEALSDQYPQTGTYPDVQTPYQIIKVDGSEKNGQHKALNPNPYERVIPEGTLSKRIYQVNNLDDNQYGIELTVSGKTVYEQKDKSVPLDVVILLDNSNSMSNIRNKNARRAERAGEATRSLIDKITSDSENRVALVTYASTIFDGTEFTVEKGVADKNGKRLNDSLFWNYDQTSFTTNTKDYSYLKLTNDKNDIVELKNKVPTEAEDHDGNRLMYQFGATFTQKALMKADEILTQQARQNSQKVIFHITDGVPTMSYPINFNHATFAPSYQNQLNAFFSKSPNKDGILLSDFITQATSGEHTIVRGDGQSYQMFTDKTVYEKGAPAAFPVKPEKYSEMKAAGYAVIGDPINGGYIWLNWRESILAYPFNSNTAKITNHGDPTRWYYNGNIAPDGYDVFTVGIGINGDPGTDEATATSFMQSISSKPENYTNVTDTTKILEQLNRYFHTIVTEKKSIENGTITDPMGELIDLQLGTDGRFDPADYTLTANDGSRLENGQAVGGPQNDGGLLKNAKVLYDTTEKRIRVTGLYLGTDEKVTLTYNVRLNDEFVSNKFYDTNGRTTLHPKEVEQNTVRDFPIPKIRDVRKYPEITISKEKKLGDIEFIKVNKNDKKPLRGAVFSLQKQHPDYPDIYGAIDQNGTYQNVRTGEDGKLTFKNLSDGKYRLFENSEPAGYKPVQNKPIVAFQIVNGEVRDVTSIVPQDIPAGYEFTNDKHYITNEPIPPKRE
Put plainly: SPR (Biacore T100). The source says:
SPR (Biacore T100) on RrgA TIGR4 (RrgA T4)

Another assay has as its target T2, RrgC T4 (Streptococcus pneumoniae, UniProt A0A0H2UNM0).
T2 construct: gene SP_0464
Put plainly: glycan array, fluorescence. Conditions: glycan printed on slide via spacer; PBS, 1 mM MgCl2, 1 mM CaCl2; protein pre-complexed with anti-His and labelled secondary antibodies. The source says:
glycan array, fluorescence on RrgC T4

Another assay deals with T3, RrgB T4 (Streptococcus pneumoniae, UniProt A0A0H2UNM7).
T3 construct: gene SP_0463
T3 sequence (A0A0H2UNM7 entry or part of it): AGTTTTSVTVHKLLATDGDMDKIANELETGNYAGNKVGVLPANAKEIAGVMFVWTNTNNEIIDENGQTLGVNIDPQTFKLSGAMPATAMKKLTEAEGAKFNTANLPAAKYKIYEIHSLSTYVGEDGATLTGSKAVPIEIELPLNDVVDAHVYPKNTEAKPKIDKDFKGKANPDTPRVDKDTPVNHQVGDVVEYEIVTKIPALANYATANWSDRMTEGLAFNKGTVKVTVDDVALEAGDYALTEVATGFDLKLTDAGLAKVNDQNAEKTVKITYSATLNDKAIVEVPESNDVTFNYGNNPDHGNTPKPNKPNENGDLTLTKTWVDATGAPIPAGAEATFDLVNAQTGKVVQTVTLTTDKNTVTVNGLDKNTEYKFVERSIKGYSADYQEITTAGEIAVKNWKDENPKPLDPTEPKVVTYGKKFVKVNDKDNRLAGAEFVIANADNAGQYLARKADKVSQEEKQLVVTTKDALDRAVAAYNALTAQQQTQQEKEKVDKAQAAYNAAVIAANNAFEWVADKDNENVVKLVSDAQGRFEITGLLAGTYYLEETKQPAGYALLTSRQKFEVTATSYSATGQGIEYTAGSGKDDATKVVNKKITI
Briefly: glycan array, fluorescence. Conditions: glycan printed on slide via spacer; PBS, 1 mM MgCl2, 1 mM CaCl2; protein pre-complexed with anti-His and labelled secondary antibodies. From the text:
glycan array, fluorescence on RrgB T4

Setting [1] is: read-out: RrgA TIGR4, free oligosaccharide, protein immobilised on CM5 chip, glycans 160 nM to 100 µM.

Where two headings read alike, the source gives them in different places.

RrgA SPEC6B, sequence (A7KT31 entry or part of it): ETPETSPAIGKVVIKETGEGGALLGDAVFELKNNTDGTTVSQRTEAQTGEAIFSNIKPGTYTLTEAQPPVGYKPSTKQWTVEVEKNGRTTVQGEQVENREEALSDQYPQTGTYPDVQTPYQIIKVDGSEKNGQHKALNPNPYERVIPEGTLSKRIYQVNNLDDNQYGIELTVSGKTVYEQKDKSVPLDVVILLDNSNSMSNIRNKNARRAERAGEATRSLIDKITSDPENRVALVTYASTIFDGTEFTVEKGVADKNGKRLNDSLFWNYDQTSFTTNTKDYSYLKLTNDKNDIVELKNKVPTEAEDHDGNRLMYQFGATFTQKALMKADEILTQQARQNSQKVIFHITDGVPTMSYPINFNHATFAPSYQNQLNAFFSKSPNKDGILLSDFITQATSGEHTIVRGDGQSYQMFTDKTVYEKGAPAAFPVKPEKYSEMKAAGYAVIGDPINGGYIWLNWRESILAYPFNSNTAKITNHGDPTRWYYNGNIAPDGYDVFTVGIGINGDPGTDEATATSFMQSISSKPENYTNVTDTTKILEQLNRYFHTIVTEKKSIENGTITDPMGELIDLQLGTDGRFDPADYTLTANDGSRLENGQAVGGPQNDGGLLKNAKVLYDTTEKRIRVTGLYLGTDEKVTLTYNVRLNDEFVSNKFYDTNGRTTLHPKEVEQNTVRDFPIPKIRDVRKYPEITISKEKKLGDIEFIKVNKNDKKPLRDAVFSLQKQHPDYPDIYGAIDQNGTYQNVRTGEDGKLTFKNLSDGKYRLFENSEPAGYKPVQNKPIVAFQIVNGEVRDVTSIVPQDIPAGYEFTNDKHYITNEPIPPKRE
T2 sequence (A0A0H2UNM0 entry or part of it): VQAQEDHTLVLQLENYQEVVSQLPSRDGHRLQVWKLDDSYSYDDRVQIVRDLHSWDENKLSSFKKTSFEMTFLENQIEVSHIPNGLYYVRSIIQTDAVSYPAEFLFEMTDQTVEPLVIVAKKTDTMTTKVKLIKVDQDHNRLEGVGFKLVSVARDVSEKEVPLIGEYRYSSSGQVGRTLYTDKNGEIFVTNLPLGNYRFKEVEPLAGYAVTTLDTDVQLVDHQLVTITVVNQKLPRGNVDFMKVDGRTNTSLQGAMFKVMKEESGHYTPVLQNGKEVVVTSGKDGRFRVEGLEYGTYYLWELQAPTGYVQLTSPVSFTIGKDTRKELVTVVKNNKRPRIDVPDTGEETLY

For `CC(=O)N[C@H]1[C@H](O[C@H]2[C@@H](O)[C@@H](CO)O[C@@H](O[C@H]3[C@H](O)[C@@H](O)C(O)O[C@@H]3CO)[C@@H]2O)O[C@H](CO)[C@@H](O)[C@@H]1O[C@@H]1O[C@H](CO)[C@H](O)[C@H](O)[C@H]1O` (stereo partly shown) [1G, Lacto-N-tetraose], the Kd at RrgA SPEC6B was 869 ± 454 nM; at RrgA TIGR4 (RrgA T4) (setting [1]) it was 1030 ± 50 nM. For `CC(=O)N[C@H]1[C@@H](O[C@H]2[C@@H](O)[C@@H](CO)OC(O)[C@@H]2O[C@@H]2O[C@@H](C)[C@@H](O)[C@@H](O)[C@@H]2O)O[C@H](CO)[C@H](O)[C@@H]1O` (stereo partly shown) [7K, Blood group A tri], the Kd at RrgA SPEC6B was found to be 1400 ± 290 nM; at RrgA TIGR4 (RrgA T4) (setting [1]), 916 ± 66.4 nM.

`CC(=O)N[C@H]1[C@@H](O[C@H]2[C@@H](O)[C@@H](CO)O[C@@H](O[C@H]3[C@@H](O)[C@@H](CO)OC(O)[C@@H]3NC(C)=O)[C@@H]2O[C@@H]2O[C@@H](C)[C@@H](O)[C@@H](O)[C@@H]2O)O[C@H](CO)[C@H](O)[C@@H]1O` (stereo partly shown) [Blood group A type3/4]: the figures for the Kd at RrgA SPEC6B and on RrgA TIGR4 (RrgA T4) (setting [1]) were 644 ± 157 nM and 871 ± 286 nM, respectively.

Consider `CC(=O)N[C@H]1C(O)O[C@H](CO)[C@H](O)[C@@H]1O[C@@H]1O[C@H](CO)[C@H](O)[C@H](O)[C@H]1O[C@@H]1O[C@@H](C)[C@@H](O)[C@@H](O)[C@@H]1O` (stereo partly shown) [Blood group H type 3/4], for which the Kd at RrgA SPEC6B amounted to 358 ± 51 nM; at RrgA TIGR4 (RrgA T4) (read-out: RrgA TIGR4, free oligosaccharide, protein immobilised on CM5 chip, glycans 160 nM to 100 µM (value below tested range)) it was 89.4 ± 16 nM. Consider `CC(=O)N[C@H]1C(O)O[C@H](CO)[C@@H](O[C@@H]2O[C@H](CO)[C@H](O)[C@H](O)[C@H]2O)[C@@H]1O[C@@H]1O[C@@H](C)[C@@H](O)[C@@H](O)[C@@H]1O` (stereo partly shown) [Lewis X], for which the results for the Kd on RrgA SPEC6B and at RrgA TIGR4 (RrgA T4) were 363 ± 107 nM and 434 ± 118 nM, respectively.

Regarding `OC[C@H]1O[C@@H](O[C@H]2[C@H](O)[C@@H](O)C(O)O[C@@H]2CO)[C@H](O)[C@@H](O)[C@@H]1O` (stereo partly shown) [cellobiose], at RrgA SPEC6B, the Kd came out at 583 ± 155 nM.

As to `CC(=O)N[C@H]1[C@H](O[C@H]2[C@H](O)[C@@H](NC(C)=O)C(O)O[C@@H]2CO)O[C@H](CO)[C@@H](O)[C@@H]1O` (stereo partly shown) [chitobiose], the Kd came to 426 ± 144 nM at RrgA SPEC6B and 409 ± 160 nM at RrgA TIGR4 (RrgA T4) (setting [1]). For `OC[C@H]1O[C@H](O[C@H]2[C@H](O)[C@@H](O)C(O)O[C@@H]2CO)[C@H](O)[C@@H](O)[C@@H]1O` (stereo partly shown) [maltobiose] the same measures were 964 ± 226 nM and 1160 ± 90 nM.

“Fucα1-2Galβ1-3(Fucα1-4)GlcNAcβ1-3Galβ1-4Glcβ-sp4 [compound 496]”: the “RrgC T4” value on RrgC T4 is 1192 ± 322. “Galα1-3Galβ1-4GlcNAcβ-sp3 [compound 222]”: the “RrgC T4” value at RrgC T4 was 3108 ± 641. Same read-out and setting: the same measure for Galβ1-6Galβ-sp4 [compound 100]: 3443.5 ± 523. Manα1-3Manβ-sp4 [compound 120]: the “RrgB T4” value at RrgB T4 stood at 1332 ± 275.

(Values after article PMC5736695, “Lectin activity of the pneumococcal pilin proteins” (Scientific Reports, 2017).)
